Assay [1] relates to HeLa cells. Briefly: Senescence, SA β-Gal activity staining. Format: cell-based. As to the method: The present inventors further investigated whether the combination therapy of cisplatin with 18E6 siRNAs induced HeLa cell senescence. The inventors measured SA β-Gal activity on the 7th day of the treatment. The cells were washed with PBS using a senescence detection kit (BIoVision, USA) and treated with SA-β-gal staining solution at 37° C. for 12 hours. The cells stained with blue were observed under microscope (×100-200).
Three photographs of the cells were taken randomly to investigate the stained cells (FIG. 17).

The subject of assay [2] is HeLa cells. Briefly: Long-term combination therapy of E6 siRNA and cisplatin, trypan blue cell count. Format: cell-based. The following applies: 7th day; siRNA 100 nM transfected twice and/or cisplatin 1.25 μM for 4 days. As to the method: To evaluate cytotoxic effect of the long-term combination therapy of synthetic E6 siRNA and cisplatin chemotherapy on cervix cancer cells, HeLa cells were co-treated for a long period of time.
Then, the single therapy group (treated with 18E6-1 siRNA, 18E6-2 siRNA or cisplatin alone) and the combination therapy group (treated with cisplatin and 18E6-1 siRNA or 18E6-2 siRNA) were compared. To obtain the maximum RNAi efficiency, siRNA transfection was repeated after 24 hours from the first transfection. For the transfection, 13 μl of opti-MEM (Gibco, USA) and 2 μl of oligofectamine were added into a 1.5 ml E-tube. To the other 1.5 ml E-tube were added 100 nM of siRNA and opti-MEM to make total volume […]. 5 minutes later, the content of the E-tube containing oligofectamine was transferred into the other E-tube to make the total volume 200 μl, which stood by for 20 minutes to form a complex. […] On the 7th day of culture, the cells were recovered by treating with trypsin, stained with 0.3% trypan blue solution and counted with hemocytometer.
The cells were cultured in normal growth medium for additional 7 days, and harvested by treating them with trypsin. The cells were stained with 0.3% trypan blue and counted with hemocytometer (FIG. 11). […]

The subject of assay [3] is HeLa cells. In words: Cell morphology after single and combination therapy (phase contrast microscope). Format: cell-based. To be noted: 7th day of the treatment. The text has this:
The present inventors cultured the cells in normal media additionally for 7 days to observe morphological changes.

In assay [4] the test system is HeLa cells. Briefly: Apoptosis, annexin V and propidium iodide flow cytometry. It counts as cell-based. The following applies: 7th day of the treatment, attached cells. The text has this: To examine apoptosis in the cells treated with 18E6-1 siRNA or 18E6-2 siRNA, the cells attached on the 7th day of the treatment were collected, stained with annexin V and propidium iodide (PI) and analyzed by flow cytometry. Apoptosis rates between the single therapy group and the combination therapy group were compared.
(A flow cytometer gives signals particle by particle.)

The next assay deals with HeLa-Luc cells. Briefly: Cervix cancer xenograft model, luciferase bioluminescence tumor size. Format: in vivo, balb-C nude mouse. To be noted: after 2 weeks; siRNA 2 mg/kg and/or cisplatin 0.5 mg/kg, intraperitoneal, every other day by turns, 7 times. As to the method:
To generate the cervix cancer xenograft model, 5×10^6 HeLa-Luc cells were injected subcutaneously into a 5 week old female balb-C nude mouse. 7 days later, tumor generation was confirmed. Then, the mouse was treated with siRNA (2 mg/kg) and cisplatin (0.5 mg/kg) every other day by taking turns, 7 times (intraperitoneal injection).
Isofluran was used as an anesthetic for in vivo imaging. Luciferase activity, which increases with the growth of a tumor, was measured 15 minutes after intraperitoneal injection of luciferin.
Bioluminescence signal released by luciferase was represented as the unit of photons/second/steradian/cm2, and the luciferase signal increases as the tumor grew.

Assay [5] concerns HeLa cells. In words: MTT assay, cytotoxic effect of cisplatin. It counts as cell-based. To be noted: cisplatin 0.625-80 μM for 48 hours. As to the method:
The present inventors also investigated cytotoxic effect of cisplatin on HeLa cells by MTT assay. HeLa cells were treated with different concentrations of cisplatin (0.625, 1.25, 2.5, 5, 10, 25, 40, and 80 μM) for 48 hours, followed by MTT assay to measure the cell growth inhibitory effect.
(In general: Formazan colour is commonly taken as a measure of viable cells.)

Assay [6] has as its system HeLa cells. Briefly: Western blotting of p53 in HeLa cells treated with cisplatin. It counts as cell-based. To be noted: 40 μM of cisplatin. On the procedure: To investigate the effect of cisplatin on cervix cancer cells, HeLa cells were treated with cisplatin. 24 hours before the treatment, 1×10^6 cells were distributed in 100 mm culture dish and cultured at 37° C. with 5% CO2 and 100% humidity. Then, the cells were treated with 40 μM of cisplatin. 24 hours later, Western blotting was performed to measure the level of p53.

This note sets out measurements from patent publication US8377899B2, “Composition for treatment of cervix cancer” (priority 2006, dated 2013).

As for `N.N.[Cl][Pt][Cl]` [cisplatin], the “number of stained cells in three random photographs” value in the assay with HeLa cells [1] (7th day of the treatment (FIG. 17)) is on record as “Only a small amount of cells were stained”. In addition, the “SA-β-Gal stained (blue) cells” value in the assay with HeLa cells [1] (7th day of the treatment, microscope (FIG. 16)) was “some of the blue cells”. Further, the “cell growth (cell number)” value in the assay on HeLa cells [2] is reported as “not significant”. In addition, the “cell growth observed by microscope” value in the assay with HeLa cells [3] is recorded as “grown regularly”. The apoptosis result in the assay with HeLa cells [4] was “not increased”. The tumor size entry in the assay with HeLa-Luc cells is “not much different”. In the assay on HeLa cells [5], the cell survival rate result is “reduced cisplatin dose dependently”. Also, in the assay with HeLa cells [6], the “expression level of p53” value is “dramatically increased”, the “time at which the level of p53 reached the peak” value came out at 24 h and the “time for which the high level of p53 was constantly observed” value turned out to be 48 h.
